Data reported in ChEMBL document CHEMBL1201862, “PubChem BioAssay data set” (2004).
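Values below derive from 48-hour exposures of cells grown in 96-well plates, with endpoints linearly interpolated between the two concentrations bracketing the appropriate inhibition level. At the GI50, growth is halved.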 Calls of active or inactive are those of the source. No stated cut-off is given here; in the data, active = GI50 up to about 1.1 µM and inactive = higher.

Experiments:
Experiment in all cases: growth of human tumour cells (NCI), 48 h
SW-620 = system: SW-620
UO-31 = system: UO-31
786-0 = system: 786-0
HL-60 = system: HL-60
M14 = system: M14
NCI-H522 = system: NCI-H522
OVCAR-4 = system: OVCAR-4
A549 = system: A549
MDA-N = system: MDA-N
CAKI-1 = system: CAKI-1
SF-539 = system: SF-539
COLO 205 = system: COLO 205
KM12 = system: KM12
NCI-H226 = system: NCI-H226
HCT-116 = system: HCT-116
OVCAR-3 = system: OVCAR-3
SK-MEL-2 = system: SK-MEL-2
MCF7 = system: MCF7
EKVX = system: EKVX
T47D = system: T47D

Measured: GI50

Cc1nc2ccc(S(=O)(=O)Nc3ccccc3Cl)cc2c(=O)n1NC(=O)CNc1ccccc1Cl
inactive: SW-620 > 100 µM | UO-31 > 100 µM | 786-0 > 100 µM | HL-60 > 100 µM | M14 > 100 µM | NCI-H522 > 100 µM | OVCAR-4 > 100 µM | A549 > 100 µM | MDA-N > 100 µM | CAKI-1 > 100 µM | SF-539 > 100 µM | COLO 205 > 100 µM | KM12 > 100 µM | NCI-H226 > 100 µM | HCT-116 > 100 µM | OVCAR-3 > 100 µM | SK-MEL-2 > 100 µM | MCF7 > 100 µM | EKVX > 100 µM

CCOC(=O)CCC(NC(=O)c1ccc(CNc2nc3cc(N)cc(N)c3nc2-c2ccccc2)cc1)C(=O)OCC (stereo not given)
inactive: SW-620 > 100 µM | UO-31 > 100 µM | 786-0 > 100 µM | HL-60 10.7 µM | M14 28.4 µM | NCI-H522 28.4 µM | OVCAR-4 17.4 µM | A549 > 100 µM | T47D 20.7 µM | CAKI-1 > 100 µM | SF-539 > 100 µM | COLO 205 27.5 µM | KM12 > 85.7 µM | NCI-H226 > 100 µM | HCT-116 > 95.9 µM | OVCAR-3 27 µM | SK-MEL-2 28.8 µM | MCF7 > 87.3 µM | EKVX > 100 µM

O=C(Cn1c(C(=O)/C=C/c2ccco2)nc2ccccc21)c1ccc(Cl)cc1
inactive: SW-620 25.4 µM | UO-31 23.2 µM | 786-0 14.3 µM | HL-60 15.5 µM | M14 19.9 µM | OVCAR-4 14.4 µM | A549 26.5 µM | T47D 31.6 µM | MDA-N 17.1 µM | SF-539 44.9 µM | COLO 205 19.4 µM | KM12 14.9 µM | NCI-H226 52.7 µM | HCT-116 16.3 µM | OVCAR-3 31.5 µM | SK-MEL-2 12.3 µM | MCF7 19.9 µM

C=C(C)[C@@H]1CC[C@]2(C(=O)O)CC[C@]3(C)[C@H](CCC4[C@@]5(C)CC[C@H](C(=O)/C=C/c6ccc(O)c(O)c6)C(C)(C)[C@@H]5CC[C@]43C)[C@@H]12 (stereo not given in full)
inactive: UO-31 3.58 µM | 786-0 4.35 µM | HL-60 2.17 µM | M14 3.39 µM | OVCAR-4 10.4 µM | A549 2.58 µM | T47D 5.14 µM | MDA-N 3.89 µM | CAKI-1 3.66 µM | SF-539 2.53 µM | COLO 205 2.84 µM | KM12 2.2 µM | HCT-116 2.77 µM | OVCAR-3 10.7 µM | SK-MEL-2 12.6 µM | MCF7 4.04 µM | EKVX 8.55 µM

CCOC(=O)c1nc2ccccc2nc1Nc1ccc(OC)cc1
inactive: SW-620 > 100 µM | UO-31 88.7 µM | 786-0 27.6 µM | HL-60 > 100 µM | M14 > 100 µM | NCI-H522 23.8 µM | OVCAR-4 18.5 µM | A549 51.2 µM | T47D 43.5 µM | CAKI-1 13.8 µM | SF-539 22 µM | COLO 205 > 100 µM | KM12 > 100 µM | NCI-H226 37.5 µM | HCT-116 42.3 µM | OVCAR-3 19.7 µM | SK-MEL-2 33.7 µM | MCF7 > 100 µM | EKVX 47.8 µM

N#C[C@H](C(=O)c1ccccc1F)c1nc2ccccc2[nH]1
inactive: SW-620 > 100 µM | UO-31 93.1 µM | 786-0 > 100 µM | M14 > 100 µM | OVCAR-4 > 100 µM | A549 > 100 µM | T47D > 100 µM | MDA-N > 100 µM | CAKI-1 > 100 µM | SF-539 > 100 µM | COLO 205 > 100 µM | KM12 96.2 µM | NCI-H226 > 100 µM | HCT-116 > 100 µM | OVCAR-3 > 100 µM | SK-MEL-2 > 100 µM | MCF7 92 µM | EKVX > 100 µM

CC1CN=C(N(C(=O)Nc2ccccc2)c2ccccc2)S1 (stereo not given)
inactive: SW-620 41.5 µM | UO-31 38.4 µM | 786-0 39.5 µM | HL-60 20 µM | OVCAR-4 19.5 µM | A549 33.4 µM | T47D 24.9 µM | MDA-N 24.1 µM | CAKI-1 27 µM | SF-539 > 10 µM | COLO 205 59.3 µM | KM12 32.7 µM | HCT-116 39.7 µM | OVCAR-3 24.9 µM | SK-MEL-2 20.8 µM | MCF7 8.99 µM | EKVX 29 µM

N#C/C(=C/NC(=S)Nc1ccc(S(N)(=O)=O)cc1)C(N)=O
inactive: SW-620 > 100 µM | 786-0 > 100 µM | HL-60 43.7 µM | M14 > 100 µM | NCI-H522 > 100 µM | OVCAR-4 > 100 µM | A549 > 100 µM | MDA-N > 100 µM | CAKI-1 > 100 µM | SF-539 > 100 µM | COLO 205 > 100 µM | KM12 > 100 µM | HCT-116 > 100 µM | OVCAR-3 > 100 µM | MCF7 > 100 µM | EKVX > 100 µM

c1ccc2c(c1)CCc1c-2n(CCN2CCCCC2)c2ccccc12
inactive: SW-620 20.8 µM | UO-31 11.4 µM | 786-0 16.3 µM | M14 13.5 µM | NCI-H522 13.5 µM | OVCAR-4 18.8 µM | A549 18.7 µM | T47D 15.5 µM | CAKI-1 16.6 µM | SF-539 12.9 µM | COLO 205 11.8 µM | KM12 14.9 µM | NCI-H226 10.9 µM | HCT-116 12.5 µM | OVCAR-3 16.6 µM | SK-MEL-2 16.3 µM | MCF7 15.2 µM | EKVX 20.4 µM

O=c1[nH]c(=O)n(COCCO)c2ccc(Br)cc12
inactive: SW-620 > 100 µM | UO-31 74.3 µM | 786-0 > 100 µM | HL-60 > 100 µM | M14 > 100 µM | OVCAR-4 > 100 µM | A549 > 100 µM | MDA-N > 100 µM | CAKI-1 > 100 µM | SF-539 > 100 µM | COLO 205 > 100 µM | KM12 > 100 µM | NCI-H226 25.2 µM | HCT-116 > 100 µM | OVCAR-3 > 100 µM | SK-MEL-2 > 100 µM | MCF7 > 100 µM | EKVX 92.3 µM

CCOC(=O)c1ccc(NC(=O)O/N=C(/Cl)CCl)cc1
inactive: SW-620 50.2 µM | UO-31 45 µM | 786-0 > 100 µM | HL-60 24.2 µM | OVCAR-4 71.1 µM | A549 37.1 µM | T47D 34.1 µM | MDA-N 37.8 µM | CAKI-1 > 100 µM | SF-539 69 µM | COLO 205 39.6 µM | KM12 15.4 µM | HCT-116 50.1 µM | OVCAR-3 37.6 µM | SK-MEL-2 60.5 µM | MCF7 34.8 µM | EKVX 23.5 µM
